Measurements reported in ChEMBL document CHEMBL1201862, “PubChem BioAssay data set” (2004).
Active and inactive are the calls of the source. Rule as the data show it, for most assays here: actives have a measured EC50 and inactives only a lower limit.

Columns and labels:
Streptokinase A = target: T1, Streptokinase A (Streptococcus pyogenes serotype M1, UniProt P10520); test: viability-normalized secreted streptokinase activity reduction – plasminogen activation absorbance, OD405, dose response (AID 1914); assay type: functional, Streptococcus pyogenes M1 GAS;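 also: secreted streptokinase activity via plasminogen activation per viability signal from cell pellet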
T1 sequence (P10520 whole entry): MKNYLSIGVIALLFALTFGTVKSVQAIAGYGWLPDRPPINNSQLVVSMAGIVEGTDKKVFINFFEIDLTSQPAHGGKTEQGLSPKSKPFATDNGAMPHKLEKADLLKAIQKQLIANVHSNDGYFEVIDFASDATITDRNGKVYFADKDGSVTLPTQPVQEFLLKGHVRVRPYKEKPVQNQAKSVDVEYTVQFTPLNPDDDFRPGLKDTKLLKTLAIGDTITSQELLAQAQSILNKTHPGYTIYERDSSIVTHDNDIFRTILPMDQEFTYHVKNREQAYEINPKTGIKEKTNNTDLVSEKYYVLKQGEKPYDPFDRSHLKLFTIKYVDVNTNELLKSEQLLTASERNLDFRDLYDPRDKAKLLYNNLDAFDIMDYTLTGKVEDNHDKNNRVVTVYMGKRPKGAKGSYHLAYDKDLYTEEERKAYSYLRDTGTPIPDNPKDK

[1] = test system: Streptococcus sp. 'group A'; test: Streptococcus pyogenes SK(-)GAS viability under kanamycin – luminescence, BacTiterGlo, confirmation, counter-screen for streptokinase expression inhibitor project, dose response (AID 1900); assay type: functional, organism-based
[2] = Luminescence Cell-Based Dose Retest to Confirm Inhibitors of Cancer Stem Cells. [Related pubchem assays (depositor defined):AID2717, AID2721]; assay type: functional; settings: Homo sapiens
Streptococcus = test: GAS UMAA2166 growth inhibition – luminescence, BacTiterGlo, counter-screen for streptokinase expression inhibitor project, dose response (AID 1915); assay type: functional, organism-based;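 also: potency for reduction of bacterial viability or growth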
[3] = NIH3T3 cell viability loss – ATP luminescence, mouse fibroblasts, counter-screen, dose response (AID 2010); assay type: functional, cell-based;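 also: cells exposed to compound for about 90 hours before reading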
[4] = Trypanosoma cruzi growth suppression in host cells – NIH3T3 host cells, beta-gal luminescence, confirmation (AID 2044); assay type: functional, cell-based;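 also: intracellular parasites grown in NIH/3T3 mouse fibroblasts as host cells; luminescent beta-galactosidase reporter signal from transgenic T. cruzi replicating inside host cells; inhibitors lower the luminescence signal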
[5] = target: T2, Rac GTPase-activating protein 1 (Homo sapiens, UniProt Q9H0H5); test: blockers of MgcRacGAP-driven Rac1 GTP hydrolysis – biochemical, ADP Hunter fluorescence, primary and confirmatory, confirmation (AID 624330); assay type: functional
T2 sequence (Q9H0H5 whole entry): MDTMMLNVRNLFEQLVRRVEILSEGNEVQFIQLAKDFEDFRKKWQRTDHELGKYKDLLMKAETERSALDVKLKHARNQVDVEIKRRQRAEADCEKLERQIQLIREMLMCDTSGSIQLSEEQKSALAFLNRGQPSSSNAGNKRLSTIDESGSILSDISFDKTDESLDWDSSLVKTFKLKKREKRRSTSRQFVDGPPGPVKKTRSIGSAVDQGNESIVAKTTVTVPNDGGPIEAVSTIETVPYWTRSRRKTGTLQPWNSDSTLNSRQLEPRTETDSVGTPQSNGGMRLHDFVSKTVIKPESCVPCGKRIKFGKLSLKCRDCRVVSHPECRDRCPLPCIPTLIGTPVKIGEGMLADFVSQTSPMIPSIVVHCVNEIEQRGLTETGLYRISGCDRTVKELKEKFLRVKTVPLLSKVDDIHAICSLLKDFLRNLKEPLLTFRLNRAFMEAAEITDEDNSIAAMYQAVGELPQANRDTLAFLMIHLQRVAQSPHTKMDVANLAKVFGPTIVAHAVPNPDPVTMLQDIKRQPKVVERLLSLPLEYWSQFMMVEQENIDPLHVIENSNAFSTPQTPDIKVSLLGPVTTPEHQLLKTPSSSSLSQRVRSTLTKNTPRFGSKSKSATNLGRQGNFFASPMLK

Paired box protein Pax-8 = Paired box protein Pax-8 (Homo sapiens, UniProt Q06710); test: PAX8 transcriptional activity inhibition in RMG-I – RMG-I cells, luciferase, cherry-pick, dose response (AID 687027); assay type: functional, cell-based;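 also: luciferase reporter driven by Pax8 target thyroperoxidase promoter measured by SteadyGlo luminescence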
INS1 = test: INS-1E survival protection against cytokine death – cell-based, luminescence, retest, dose response (AID 449756); assay type: functional; settings: Rattus norvegicus;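 also: cell death triggered by IL-1 beta plus TNF-alpha plus IFN-gamma mixture; protective hits raise ATP signal compared with cytokine alone wells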

Paired box protein Pax-8, sequence (Q06710 whole entry): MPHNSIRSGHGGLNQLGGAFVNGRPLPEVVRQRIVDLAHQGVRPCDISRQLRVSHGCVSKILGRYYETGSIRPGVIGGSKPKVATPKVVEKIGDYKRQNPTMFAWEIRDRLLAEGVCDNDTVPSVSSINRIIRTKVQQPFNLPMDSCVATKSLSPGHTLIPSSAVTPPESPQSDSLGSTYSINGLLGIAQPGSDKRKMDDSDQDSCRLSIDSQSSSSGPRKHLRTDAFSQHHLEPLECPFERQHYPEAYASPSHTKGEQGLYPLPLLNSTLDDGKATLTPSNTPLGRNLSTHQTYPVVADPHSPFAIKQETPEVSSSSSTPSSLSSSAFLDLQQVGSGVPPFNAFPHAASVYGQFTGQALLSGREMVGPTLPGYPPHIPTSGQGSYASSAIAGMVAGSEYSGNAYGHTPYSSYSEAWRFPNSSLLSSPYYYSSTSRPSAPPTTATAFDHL

SMILES: O=C(NC(=S)Nc1cccc(Cl)c1N1CCCCC1)c1ccc2c(c1)OCCO2
- EC50 (Streptokinase A): 48 µM (active)
- EC50 [1]: 80.4 µM (active)
- AC50 [2]: 0.707 µM (active)
- EC50 (Streptococcus): > 150 µM (not active)

SMILES: Cc1ccc(C)c(S(=O)(=O)N2CCN(CC(=O)NC(=O)NCc3ccccc3)CC2)c1
- EC50 [3]: > 60 µM (not active)
- EC50 [4]: 0.72 µM (active)

SMILES: c1ccc(-c2nc(N3CCN(c4ccccc4)CC3)nc(-n3ccnc3)n2)cc1
- EC50 [3]: > 60 µM (not active)
- EC50 [4]: 3.53 µM (active)

SMILES: CCOc1cccc2cc(C(=O)Oc3ccc(OC)cc3)c(=O)oc12
- IC50 [5]: 52.5 µM (active)

SMILES: CCOC(=O)c1c(-c2cccs2)csc1NC(=O)c1ccncc1
- EC50 [3]: > 30 µM (not active)
- EC50 [4]: 2.14 µM (active)

SMILES: Cc1ccc(CN2CCC(Oc3cccc(C(=O)N(C)CCN(C)C)c3)CC2)cc1C
- EC50 [3]: 26 µM (active)
- EC50 [4]: < 0.1 µM (active)

SMILES: C[C@@H]1CCCCO[C@H](CN(C)C(=O)NC2CCCCC2)[C@@H](C)CN([C@@H](C)CO)C(=O)c2cc(NC(=O)Nc3ccc(C(F)(F)F)cc3)ccc2O1
- AC50 (Paired box protein Pax-8): 4.98 µM (active)

SMILES: CC(C)(C)c1ccc(NC(=O)Cn2cnc3cc([N+](=O)[O-])ccc3c2=O)cc1
- EC50 [3]: 22.1 µM (active)
- EC50 [4]: 1 µM (active)

SMILES: Cc1ccc(-n2cc(CN3CCC(CO)(Cc4cccc(C(F)(F)F)c4)CC3)cn2)cc1
- EC50 [3]: > 60 µM (not active)
- EC50 [4]: 0.896 µM (active)

SMILES: CS(=O)(=O)c1ccc2nc(NC(=O)c3ccc(NS(=O)(=O)c4ccc(F)c(F)c4)cc3)sc2c1
- EC50 [1]: 0.318 µM (active)
- EC50 (Streptococcus): 5.61 µM (active)

SMILES: Cc1ccc(C(c2nnnn2Cc2ccccc2)N2CC=C(c3ccc(F)cc3)CC2)cc1 (configuration not stated)
- EC50 [3]: 20.8 µM (active)
- EC50 [4]: 1.95 µM (active)

SMILES: COc1ccc(S(=O)(=O)N[C@@H](C)C(=O)OCC(=O)Nc2cc3oc4ccccc4c3cc2OC)cc1
- EC50 (Streptokinase A): > 150 µM (not active)
- EC50 [1]: 1.39 µM (active)
- EC50 (Streptococcus): 16.4 µM (active)

SMILES: O=C(NN=Cc1ccc(O)cc1)c1ccccc1NS(=O)(=O)c1cccs1
- IC50 [5]: 74.4 µM (active)

SMILES: C=CCc1cc(/C=N/c2ccc(N3CCOCC3)cc2)cc(OCC)c1O
- IC50 [5]: 13.1 µM (active)

SMILES: Cc1c(C(=O)NN=C(S)NCc2ccc(Cl)cc2)oc2ccccc12
- EC50 [1]: 7.12 µM (active)
- EC50 (Streptococcus): > 150 µM (not active)

SMILES: Cc1ccc2nc(-c3ccc(NC(=O)CNC4CC4)cc3)sc2c1
- EC50 (Streptokinase A): > 150 µM (not active)
- EC50 [1]: 14.4 µM (active)
- EC50 (Streptococcus): > 150 µM (not active)

SMILES: CCOc1cc(/C=C2\SC(N)=NC2=O)ccc1O
- IC50 [5]: 47 µM (active)

SMILES: COc1cc2c(cc1OC)C1(CCCC1)C(N)=C2C#N
- IC50 [5]: 38 µM (active)

SMILES: COc1ccccc1OCC#CCN1CCCC(C)C1 (configuration not stated)
- IC50 [5]: 182 µM (active)

SMILES: Cc1ccn2c(NCc3ccccc3)c(-c3cccc(SC4CCCCC4)c3)nc2c1
- AC50 [2]: 4.44 µM (active)

SMILES: Nc1nc(Nc2cccc(Cl)c2)nc(NCc2ccco2)c1[N+](=O)[O-]
- EC50 (Streptokinase A): > 150 µM (not active)
- EC50 [1]: 7.28 µM (active)
- EC50 (Streptococcus): 16.4 µM (active)

SMILES: Cc1cc(C)cc(NC(=O)C(NCCN2CCOCC2)c2ccccc2)c1 (configuration not stated)
- IC50 [5]: 48.4 µM (active)

SMILES: NC(=O)c1cc([N+](=O)[O-])ccc1NCc1ccc(O)cc1
- AC50 [2]: 2.92 µM (active)

SMILES: COc1ccc(OC)c(C2C=C(C34CC5CC(CC(C5)C3)C4)N=C(S)N2)c1 (configuration not stated)
- EC50 (Streptokinase A): 14.7 µM (active)
- EC50 [1]: 11.2 µM (active)
- EC50 [3]: > 30 µM (not active)
- EC50 [4]: 1.15 µM (active)
- EC50 (Streptococcus): > 150 µM (not active)

SMILES: COc1ccc(N2CCN(C(C)C(=O)N3CCCC3)CC2)cc1 (configuration not stated)
- IC50 [5]: 72.4 µM (active)

SMILES: O=S(=O)(Nc1ccc(O)c(Sc2nc3ccccc3s2)c1)c1cccc2ccccc12
- EC50 (Streptokinase A): > 150 µM (not active)
- EC50 [1]: 4.05 µM (active)
- AC50 [2]: 6.45 µM (active)
- EC50 (Streptococcus): 7.08 µM (active)

SMILES: COc1cccc(CC2(CO)CCCN(Cc3sc(N4CCCC4)nc3Cl)C2)c1 (configuration not stated)
- EC50 [3]: > 30 µM (not active)
- EC50 [4]: 1.74 µM (active)

SMILES: C[C@@H]1CCCCO[C@@H](CN(C)Cc2ccc(Cl)c(Cl)c2)[C@H](C)CN([C@H](C)CO)C(=O)c2cc(NS(=O)(=O)c3ccccc3)ccc2O1
- AC50 (Paired box protein Pax-8): 7.95 µM (active)

SMILES: Cc1cccc(OCC(=O)Nc2ccccc2N2CCCCC2)c1C
- EC50 (Streptokinase A): 5.39 µM (active)
- EC50 [1]: 9.25 µM (active)
- EC50 (Streptococcus): 13.4 µM (active)

SMILES: C=CCc1cc(Cl)ccc1OCCn1ccnc1
- IC50 [5]: 139 µM (active)

SMILES: Cc1cccc(C)c1OCCCCN1CCNCC1
- IC50 [5]: 122 µM (active)

SMILES: CCCSc1nsc(NC(=O)Nc2ccc(F)cc2F)n1
- AC50 (INS1): 6.57 µM (active)
- EC50 (Streptokinase A): 54.8 µM (inconclusive)
- EC50 [1]: 17.5 µM (active)
- AC50 [2]: 2.95 µM (active)
- EC50 (Streptococcus): 34.2 µM (active)

SMILES: C[C@@H]1CN([C@@H](C)CO)C(=O)c2cc(N(C)C)ccc2O[C@@H]1CN(C)Cc1ccc(Oc2ccccc2)cc1
- AC50 (Paired box protein Pax-8): 19.1 µM (active)

SMILES: C[C@@H]1CCCCO[C@H](CN(C)Cc2ccc(C(F)(F)F)cc2)[C@H](C)CN([C@H](C)CO)C(=O)c2cc(NS(=O)(=O)c3cccs3)ccc2O1
- AC50 (Paired box protein Pax-8): 11.5 µM (active)

SMILES: Cc1ccc(NC(S)=NN=C(S)Nc2cccc(C(F)(F)F)c2)cc1
- EC50 (Streptokinase A): > 150 µM (not active)
- EC50 [1]: 5.24 µM (active)
- EC50 (Streptococcus): 110 µM (active)

SMILES: C/C(=N\Nc1nc2ccccc2[nH]1)c1ccc(Cl)s1
- IC50 [5]: 42 µM (active)

SMILES: COC(=O)c1ccc2[nH]c3cccc(/C(=C/c4ccccc4)c4ccccc4)c3c2c1
- AC50 (INS1): 11.2 µM (active)
- EC50 (Streptokinase A): 1.43 µM (active)
- EC50 [1]: 0.602 µM (active)
- EC50 (Streptococcus): 3.93 µM (active)

SMILES: COc1ccc(/C=C/C(=O)NC(=S)Nc2ccccc2C(=O)NC2CCCCC2)cc1
- AC50 (INS1): 13.9 µM (active)

SMILES: O=C1CSC(c2cccnc2)N1CC1CC1 (configuration not stated)
- AC50 (INS1): > 260 µM (inactive)

SMILES: Cc1c(C(=O)NNC(=S)NCc2ccc(Cl)cc2)oc2ccccc12
- EC50 (Streptokinase A): 22.5 µM (active)

SMILES: CC12CCC(C(=O)NNC(=O)c3ccccc3)(OC1=O)C2(C)C (configuration not stated)
- EC50 (Streptokinase A): > 150 µM (not active)
- EC50 [1]: > 150 µM (not active)
- EC50 (Streptococcus): > 150 µM (not active)

SMILES: Nc1c(C(=O)c2ccccc2)sc(Nc2ccccc2)c1S(=O)(=O)c1ccccc1
- EC50 [3]: > 60 µM (not active)
- EC50 [4]: 1.47 µM (active)

SMILES: CC(=O)c1c(Nc2ccc3c(c2)OCCO3)oc(C)cc1=O
- IC50 [5]: 54 µM (active)

SMILES: COc1ccc(S(=O)(=O)N2CCCCN3[C@H](C2)[C@H](c2ccc(C#CC(C)C)cc2)[C@@H]3CO)cc1
- AC50 (Paired box protein Pax-8): 9.44 µM (active)

SMILES: C/C(=N\Nc1cc(C(F)(F)F)ccc1Cl)c1ccccc1O
- AC50 [2]: 83.1 µM (active)

SMILES: CCOC(=O)c1c(NC(=O)c2cccs2)sc2c1CCN(C(=O)OCC)C2
- EC50 [1]: 12 µM (active)

SMILES: O=C(COC(=O)Cn1cnc2ccccc2c1=O)Nc1ccc2c(c1)OCO2
- AC50 (INS1): > 260 µM (inactive)

SMILES: O=C(COC(=O)c1ccccc1Br)Nc1nnc(-c2ccccc2)o1
- EC50 (Streptokinase A): > 150 µM (not active)
- EC50 [1]: 0.834 µM (active)
- EC50 (Streptococcus): 19.2 µM (active)

SMILES: Cc1cnccc1CN(C)Cc1cn(C)nc1-c1ccc(Oc2ccccc2)cc1
- EC50 [3]: > 30 µM (not active)
- EC50 [4]: 1.76 µM (active)

SMILES: Cc1ccc(-c2nnn(CC(=O)N3c4ccccc4CCc4ccccc43)n2)cc1
- EC50 [3]: > 60 µM (not active)
- EC50 [4]: 3.26 µM (active)

SMILES: CC(C)Cc1nc2oc3c(Cl)ncnc3c2c2c1CCCC2
- AC50 [2]: 3.3 µM (active)

SMILES: CCOc1ccc(CN2CCN(Cc3cccc4c3OCO4)CC2CCO)cc1 (configuration not stated)
- EC50 [3]: > 60 µM (not active)
- EC50 [4]: 0.208 µM (active)
